Assay results reported in patent publication US4479943A, “3-Demethoxyistamycin B, the 2"-N-formimidoyl derivative thereof and pharmaceutical composition containing same” (Zaidan Hojin Biseibutsu Kagaku Kenkyu Kai, priority 1982, dated 1984).
Converted amounts (≈) assume the structure as drawn.

Tests used:
[1] = system: Staphylococcus aureus FDA 209P; test: Antibacterial MIC, standard serial dilution; type: cell-based; conditions: nutrient agar, 37° C., 17 hours, as free base
[2] = system: Staphylococcus aureus Smith; test: Antibacterial MIC, standard serial dilution; type: cell-based; conditions: nutrient agar, 37° C., 17 hours, as free base
[3] = system: Staphylococcus aureus Ap01; test: Antibacterial MIC, standard serial dilution; type: cell-based; conditions: nutrient agar, 37° C., 17 hours, as free base
[4] = system: Staphylococcus epidermidis 109; test: Antibacterial MIC, standard serial dilution; type: cell-based; conditions: nutrient agar, 37° C., 17 hours, as free base
[5] = system: Micrococcus flavus FDA 16; test: Antibacterial MIC, standard serial dilution; type: cell-based; conditions: nutrient agar, 37° C., 17 hours, as free base
[6] = system: Sarcina lutea PCI 1001; test: Antibacterial MIC, standard serial dilution; type: cell-based; conditions: nutrient agar, 37° C., 17 hours, as free base
[7] = system: Bacillus anthracis; type: cell-based; conditions: nutrient agar, 37° C., 17 hours, as free base
[8] = system: Bacillus subtilis PCI 219; test: Antibacterial MIC, standard serial dilution; type: cell-based; conditions: nutrient agar, 37° C., 17 hours, as free base
[9] = system: Bacillus subtilis NRRL B-558; test: Antibacterial MIC, standard serial dilution; type: cell-based; conditions: nutrient agar, 37° C., 17 hours, as free base
[10] = system: Bacillus cereus ATCC 10702; test: Antibacterial MIC, standard serial dilution; type: cell-based; conditions: nutrient agar, 37° C., 17 hours, as free base
[11] = system: Corynebacterium bovis 1810; test: Antibacterial MIC, standard serial dilution; type: cell-based; conditions: nutrient agar, 37° C., 17 hours, as free base
[12] = system: Mycobacterium smegmatis ATCC 607; test: Antibacterial MIC, standard serial dilution; type: cell-based; conditions: nutrient agar, 37° C., 17 hours, as free base
[13] = system: Escherichia coli NIHJ; test: Antibacterial MIC, standard serial dilution; type: cell-based; conditions: nutrient agar, 37° C., 17 hours, as free base
[14] = system: Escherichia coli K-12; test: Antibacterial MIC, standard serial dilution; type: cell-based; conditions: nutrient agar, 37° C., 17 hours, as free base
[15] = system: Escherichia coli K-12 R388; test: Antibacterial MIC, standard serial dilution; type: cell-based; conditions: nutrient agar, 37° C., 17 hours, as free base
[16] = system: Escherichia coli K-12 J5R11-2; test: Antibacterial MIC, standard serial dilution; type: cell-based; conditions: nutrient agar, 37° C., 17 hours, as free base
[17] = system: Escherichia coli K-12 ML1629; test: Antibacterial MIC, standard serial dilution; type: cell-based; conditions: nutrient agar, 37° C., 17 hours, as free base
[18] = system: Escherichia coli K-12 ML1630; test: Antibacterial MIC, standard serial dilution; type: cell-based; conditions: nutrient agar, 37° C., 17 hours, as free base
[19] = system: Escherichia coli K-12 ML1410; test: Antibacterial MIC, standard serial dilution; type: cell-based; conditions: nutrient agar, 37° C., 17 hours, as free base
[20] = system: Escherichia coli W677; test: Antibacterial MIC, standard serial dilution; type: cell-based; conditions: nutrient agar, 37° C., 17 hours, as free base
[21] = system: Escherichia coli JR66/W677; test: Antibacterial MIC, standard serial dilution; type: cell-based; conditions: nutrient agar, 37° C., 17 hours, as free base
[22] = system: Escherichia coli JR225; test: Antibacterial MIC, standard serial dilution; type: cell-based; conditions: nutrient agar, 37° C., 17 hours, as free base
[23] = system: Klebsiella pneumoniae PCI602; test: Antibacterial MIC, standard serial dilution; type: cell-based; conditions: nutrient agar, 37° C., 17 hours, as free base
[24] = system: Klebsiella pneumoniae 22#3038; test: Antibacterial MIC, standard serial dilution; type: cell-based; conditions: nutrient agar, 37° C., 17 hours, as free base
[25] = system: Shigella dysenteriae JS11910; test: Antibacterial MIC, standard serial dilution; type: cell-based; conditions: nutrient agar, 37° C., 17 hours, as free base
[26] = system: Shigella sonnei JS11746; test: Antibacterial MIC, standard serial dilution; type: cell-based; conditions: nutrient agar, 37° C., 17 hours, as free base
[27] = system: Salmonella typhi T-63; test: Antibacterial MIC, standard serial dilution; type: cell-based; conditions: nutrient agar, 37° C., 17 hours, as free base
[28] = system: Salmonella enteritidis 1891; test: Antibacterial MIC, standard serial dilution; type: cell-based; conditions: nutrient agar, 37° C., 17 hours, as free base
[29] = system: Proteus vulgaris 0X19; test: Antibacterial MIC, standard serial dilution; type: cell-based; conditions: nutrient agar, 37° C., 17 hours, as free base
[30] = system: Proteus rettgeri GN311; test: Antibacterial MIC, standard serial dilution; type: cell-based; conditions: nutrient agar, 37° C., 17 hours, as free base
[31] = system: Proteus rettgeri GN466; test: Antibacterial MIC, standard serial dilution; type: cell-based; conditions: nutrient agar, 37° C., 17 hours, as free base
[32] = system: Serratia marcescens; test: Antibacterial MIC, standard serial dilution; type: cell-based; conditions: nutrient agar, 37° C., 17 hours, as free base
[33] = system: Serratia sp. SOU; test: Antibacterial MIC, standard serial dilution; type: cell-based; conditions: nutrient agar, 37° C., 17 hours, as free base
[34] = system: Serratia sp. 4; test: Antibacterial MIC, standard serial dilution; type: cell-based; conditions: nutrient agar, 37° C., 17 hours, as free base
[35] = system: Providencia sp. Pv16; test: Antibacterial MIC, standard serial dilution; type: cell-based; conditions: nutrient agar, 37° C., 17 hours, as free base
[36] = system: Providencia sp. 2991; test: Antibacterial MIC, standard serial dilution; type: cell-based; conditions: nutrient agar, 37° C., 17 hours, as free base
[37] = system: Pseudomonas aeruginosa A3; test: Antibacterial MIC, standard serial dilution; type: cell-based; conditions: nutrient agar, 37° C., 17 hours, as free base
[38] = system: Pseudomonas aeruginosa No. 12; test: Antibacterial MIC, standard serial dilution; type: cell-based; conditions: nutrient agar, 37° C., 17 hours, as free base
[39] = system: Pseudomonas aeruginosa H9; test: Antibacterial MIC, standard serial dilution; type: cell-based; conditions: nutrient agar, 37° C., 17 hours, as free base
[40] = system: Pseudomonas aeruginosa H11; test: Antibacterial MIC, standard serial dilution; type: cell-based; conditions: nutrient agar, 37° C., 17 hours, as free base
[41] = system: Pseudomonas aeruginosa TI-13; test: Antibacterial MIC, standard serial dilution; type: cell-based; conditions: nutrient agar, 37° C., 17 hours, as free base
[42] = system: Pseudomonas aeruginosa GN315; test: Antibacterial MIC, standard serial dilution; type: cell-based; conditions: nutrient agar, 37° C., 17 hours, as free base
[43] = system: Pseudomonas aeruginosa 99; test: Antibacterial MIC, standard serial dilution; type: cell-based; conditions: nutrient agar, 37° C., 17 hours, as free base
[44] = system: Pseudomonas aeruginosa B-13; test: Antibacterial MIC, standard serial dilution; type: cell-based; conditions: nutrient agar, 37° C., 17 hours, as free base
[45] = system: Pseudomonas aeruginosa 21-75; test: Antibacterial MIC, standard serial dilution; type: cell-based; conditions: nutrient agar, 37° C., 17 hours, as free base
[46] = system: Pseudomonas aeruginosa PST1; test: Antibacterial MIC, standard serial dilution; type: cell-based; conditions: nutrient agar, 37° C., 17 hours, as free base
[47] = system: Pseudomonas aeruginosa ROS 134/PU21; test: Antibacterial MIC, standard serial dilution; type: cell-based; conditions: nutrient agar, 37° C., 17 hours, as free base
[48] = system: Pseudomonas aeruginosa K-Ps 102; test: Antibacterial MIC, standard serial dilution; type: cell-based; conditions: nutrient agar, 37° C., 17 hours, as free base
[49] = system: Pseudomonas maltophilia GN 907; test: Antibacterial MIC, standard serial dilution; type: cell-based; conditions: nutrient agar, 37° C., 17 hours, as free base
[50] = system: bacteria; conditions: in words; earlier work; cited from earlier work

SMILES: CNC[C@@H]1CC[C@@H](N)[C@@H](O[C@H]2[C@H](O)[C@H](N(C)C(=O)CN)[C@@H](OC)C[C@H]2N)O1 [B, istamycin B]
- MIC [1]: 0.39 µg/mL (≈ 1 µM)
- MIC [2]: 0.39 µg/mL (≈ 1 µM)
- MIC [3]: 0.78 µg/mL (≈ 2 µM)
- MIC [4]: 0.39 µg/mL (≈ 1 µM)
- MIC [5]: 12.5 µg/mL (≈ 32.1 µM)
- MIC [6]: 0.39 µg/mL (≈ 1 µM)
- MIC [7]: 0.78 µg/mL (≈ 2 µM)
- MIC [8]: 0.39 µg/mL (≈ 1 µM)
- MIC [9]: 0.39 µg/mL (≈ 1 µM)
- MIC [10]: 6.25 µg/mL (≈ 16 µM)
- MIC [11]: 0.39 µg/mL (≈ 1 µM)
- MIC [12]: 0.78 µg/mL (≈ 2 µM)
- MIC [13]: 0.39 µg/mL (≈ 1 µM)
- MIC [14]: 0.78 µg/mL (≈ 2 µM)
- MIC [15]: 0.78 µg/mL (≈ 2 µM)
- MIC [16]: 1.56 µg/mL (≈ 4.01 µM)
- MIC [17]: 1.56 µg/mL (≈ 4.01 µM)
- MIC [18]: 3.13 µg/mL (≈ 8.04 µM)
- MIC [19]: 3.13 µg/mL (≈ 8.04 µM)
- MIC [20]: 0.78 µg/mL (≈ 2 µM)
- MIC [21]: 1.56 µg/mL (≈ 4.01 µM)
- MIC [22]: 1.56 µg/mL (≈ 4.01 µM)
- MIC [23]: 3.13 µg/mL (≈ 8.04 µM)
- MIC [24]: 1.56 µg/mL (≈ 4.01 µM)
- MIC [25]: 3.13 µg/mL (≈ 8.04 µM)
- MIC [26]: 0.78 µg/mL (≈ 2 µM)
- MIC [27]: 0.39 µg/mL (≈ 1 µM)
- MIC [28]: 3.13 µg/mL (≈ 8.04 µM)
- MIC [29]: 0.39 µg/mL (≈ 1 µM)
- MIC [30]: 0.78 µg/mL (≈ 2 µM)
- MIC [31]: 0.78 µg/mL (≈ 2 µM)
- MIC [32]: 1.56 µg/mL (≈ 4.01 µM)
- MIC [33]: 25 µg/mL (≈ 64.2 µM)
- MIC [34]: 50 µg/mL (≈ 128 µM)
- MIC [35]: 1.56 µg/mL (≈ 4.01 µM)
- MIC [36]: 3.13 µg/mL (≈ 8.04 µM)
- MIC [37]: 1.56 µg/mL (≈ 4.01 µM)
- MIC [38]: 50 µg/mL (≈ 128 µM)
- MIC [39]: 50 µg/mL (≈ 128 µM)
- MIC [40]: 100 µg/mL (≈ 257 µM)
- MIC [41]: 50 µg/mL (≈ 128 µM)
- MIC [42]: 50 µg/mL (≈ 128 µM)
- MIC [43]: 100 µg/mL (≈ 257 µM)
- MIC [44]: > 100 µg/mL
- MIC [45]: 100 µg/mL (≈ 257 µM)
- MIC [46]: 50 µg/mL (≈ 128 µM)
- MIC [47]: > 100 µg/mL
- MIC [48]: 50 µg/mL (≈ 128 µM)
- MIC [49]: 100 µg/mL (≈ 257 µM)
- antibacterial activity [50]: higher antibacterial activity than istamycin A
